Data taken from patent US4642347A, “3(2-quinolinylalkoxy)phenols” (American Home Products Corporation, priority 1985, dated 1987).
Entries after “also recorded” stand apart in the source; their conditions may differ.

What was measured:
[1] = system: 5-HETE synthesis by rat glycogen-elicited polymorphonuclear leukocytes (5-lipoxygenase); assay: Inhibition of 5-HETE synthesis by rat glycogen-elicited polymorphonuclear leukocytes (A23187, [14C] arachidonic acid); assay type: cell-based, rat (Wistar); conditions: for IC50: Leukocyte, rat peritoneal PMN, 5-HETE synthesis, read-out: 50% Inhibitory Concentration (IC50), 5-HETE
Protocol: This is especially true with respect to 5,12-diHETE, which is also denoted as LTB4 [see Ford-Hitchinson, J. Roy. Soc. Med., 74, 831 (1981)]. The assay of this Example measures the ability of the compounds of the invention to inhibit the synthesis of 5-HETE and LTB4 by rat glycogen-elicited polymorphonuclear leukocytes.
(§1) The assay is carried out as follows:
(§2) Peritoneal PMN are obtained from female Wistar rats (150-250 g) that received an i.p. injection of 6% glycogen (10 ml). After 24 hours, rats are killed by CO2 asphyxiation and peritoneal cells are harvested by peritoneal lavage using Ca^++ and Mg^++ free Hanks' balanced salt solution (HBSS). The peritoneal exudate is centrifuged at 400 g for 10 minutes. After centrifugation, the lavaged fluid is removed and the cell pellet is resuspended in HBSS containing Ca^++ and Mg^++ and 10 mM L-cysteine at a concentration of 2×10^7 cells/ml. To 1 ml portions of cell suspension, test drugs or vehicle are added and incubated at 37° C. for 10 minutes. Following this preincubation, the calcium ionophore (10 μM), A23187, is added together with 0.5 μCi [^14 C] arachidonic acid and further incubated for 10 minutes. The reaction is stopped by the addition of ice cold water (3 ml) and acidifying to pH 3.5. Lipoxygenase products are then extracted twice into diethyl ether. The pooled ether extracts are evaporated to dryness under nitrogen and the residue is redissolved in a small volume of methanol and spotted on aluminum backed pre-coated thin layer chromatographic plates. The samples are then co-chromatographed with authentic reference 5-HETE in the solvent system--hexane:ether:acetic acid (50:50:3). After chromatography, the areas associated with 5-HETE standard are identified by autoradiography, cut out and quantitated by liquid scintillation.
Results are expressed as % inhibition of [^14 C]5-HETE synthesis. [formula]

[2] = system: TxB2 synthesis (cyclooxygenase); assay: Inhibition of synthesis of TxB2 by rat polymorphonuclear leukocytes; assay type: cell-based, rat (Wistar); conditions: for IC50: Leukocyte, rat PMN, TxB2, read-out: % Inhibitory Concentration (IC50), Inhibition of Synthesis of TxB2
Protocol: as §2
(§3) The procedure of Example 2 is also employed for the determination of the ability of the compounds of the invention to inhibit the synthesis of the arachidonic acid cyclooxygenase oxidation products TxB2 and PGE2.
In this assay, the procedure of Example 2 is carried out as described. […] After chromatography, the areas associated with TxB2 and PGE2 standards are identified by autoradiography, cut out and quantitated by liquid scintillation techniques.
(§4) The results are calculated as in Example 2 and presented below.

[3] = system: PGE2 synthesis (cyclooxygenase); assay: Inhibition of synthesis of PGE2 by rat polymorphonuclear leukocytes; assay type: cell-based, rat (Wistar); conditions: for IC50: Leukocyte, PGE2, read-out: 50% Inhibitory Concentration (IC50), Inhibition of Synthesis of PGE2; for IC50 / influence on the synthesis of PGE2 (in words): rat PMN; for cyclooxygenase inhibitory activity (in words): conclusion from TxB2 and PGE2 results
Protocol: as §2, §3
In this assay, the procedure of Example 2 is carried out as described. However, in order to determine cyclooxygenase activity, the samples are cochromatographed with authentic reference TxB2 and PGE2 in the solvent system ethyl acetate:formic acid (80:1) and the upper phase of ethyl acetate:isoctane:acetic acid:water (110:50:20:100). After chromatography, the areas associated with TxB2 and PGE2 standards are identified by autoradiography, cut out and quantitated by liquid scintillation techniques.
as §4

[4] = system: leukotrienes C4 and/or D4 induced bronchospasm; assay: In vivo inhibition of bronchospasm induced in guinea pigs by exogenously administered leukotrienes C4 and/or D4; set-up: species or system guinea pig (Hartley); conditions: for % Maximal Bronchoconstriction / % Inhibition: 10 minutes before induction of bronchospasm; for % Inhibition: compared to its control (*P < 0.05; ***P < 0.001); for leukotriene antagonism (in words): summary of guinea pig results
[5] = system: ovalbumin-induced bronchoconstriction; assay: In vivo inhibition of ovalbumin-induced (anaphylactic) bronchoconstriction by endogenous mediators in sensitized guinea pigs; set-up: species or system guinea pig (Hartley); conditions: 50 mg/kg intraduodenally, 10 minutes before i.v. ovalbumin challenge; for % Inhibition: compared to its control (*P < 0.05; ***P < 0.005)
Protocol: The assay of this Example measures the in vivo ability of the compounds of the invention to inhibit the bronchospasm induced in guinea pigs by endogenous mediators of the bronchoconstriction.
as §1
Male Hartley strain guinea pigs weighing 250-350 g are sensitized to chicken ovalbumin (OA) (10 mg i.p.) on days 1 and 3 and used starting on day 26. The animals are anesthetized with pentobarbital sodium (50 mg/kg, i.p.), bilateral vagotomy is performed, and the jugular vein is cannulated for injection of drugs and the carotid artery for monitoring blood pressure. The trachea is cannulated for artificial ventilation by miniature Starling pump and for indirect measurement of respiratory volume changes as described, infra. Succinylcholine (2 mg/kg, i.v.) is administered to arrest spontaneous respiration. A cyclooxygenase inhibitor, indomethacin (10 mg/kg in tris buffer, i.v. at 9 min.) is administered to shunt arachidonic metabolism to lipoxygenase pathways. One minute later, chlorpheniramine (1.0 mg/kg in saline, i.v.) is given to attenuate the histaminic component of anaphylactic bronchoconstriction. Test drugs (dissolved in propylene glycol, polyethylene glycol or saline) are administered either intraduodenally or by aerosol at 2 or 10 minutes before antigen challenge. Anaphylactic bronchoconstriction is induced by administration by breaths of aerosolized OA (1%) or by intravenous administration of 0.1-0.3 mg/kg OA in saline. Control animals receive solvent (2 ml/kg i.d. or appropriate aerosol) in place of drug.
Respiratory volume changes are determined by a calibrated piston whose travel is recorded, via a linear transducer, on a Beckman Dynograph recorder. Maximal bronchoconstrictor volume is determined by clamping off the trachea at the end of the experiment. Overflow volumes at minutes 1, 3 and 5 are obtained from the recorded charts.
Area under the volume overflow curve (AUC) is estimated, using the overflow values at 1, 3 and 5 minutes, and expressed as a percentage of the maximal overflow AUC (equation 1): [formula] Drug effects are reported as percent inhibition of % max AUC values obtained from appropriate control animals (equation 2): [formula] Students t-test for unpaired data is used to determine statistical significance.

IC50 [1] [µM]	IC50 [2] [µM]	IC50 [3] [µM]	influence on the synthesis of PGE2 (in words) [3]	potency in inhibiting TxB2 synthesis relative to the compound of Example 1 ([2]; as potent as the compound of Example 1)	SMILES	5-lipoxygenase inhibition (in words) ([1]; conclusion from Example 2)	potency in inhibiting the synthesis of 5-HETE relative to the prior art compound ([1]; rat peritoneal neutrophils, more potent than the prior art compound)	cyclooxygenase inhibitory activity (in words) [3]	% Maximal Bronchoconstriction ([4]; 50 mg/kg intraduodenally) [%]	% Inhibition ([4]; 50 mg/kg intraduodenally) [%]	leukotriene antagonism (in words) [4]	potency as inhibitor of LTD4-induced bronchoconstriction relative to the prior art compound ([4]; times more potent than the prior art compound, 50 mg/kg intraduodenally)	% Maximal Bronchoconstriction [5] [%]	% Inhibition [5] [%]
6.07	14.6	> 100	failure	–	Oc1cccc(OCc2ccc3ccccc3n2)c1 [Example 1, 3-(2-Quinolinylmethoxyl)phenol]	very potent 5-lipoxygenase inhibitor; also recorded: significant 5-lipoxygenase inhibition; also recorded: strong inhibitor of 5-lipoxygenase	approximately an order of magnitude more potent	little or no significant cyclooxygenase inhibitory activity	10 ± 1	82	potent leukotriene antagonist	approximately three	21 ± 8	53
53	6.82	5.82	quite significantly active	twice as potent	Oc1ccccc1OCc1ccc2ccccc2n1 [2-(2-quinolinylmethoxy)phenol, reference compound]	–	–	potent activity as a cyclooxygenase inhibitor	43 ± 6	28	ability to block leukotriene responses	–	31 ± 6	47
